# From patent US8802678B2, “Carbonylated (aza) cyclohexanes as dopamine D3 receptor ligands” (Bioprojet, priority 2006, dated 2014)
# Counter-ions that a name gives are not always drawn.
# Molecular target: human D3 receptor (Homo sapiens, UniProt P35462)
# Experiment: [3H]spiperone binding, membranes of CHO cells transfected with human D3 receptor cDNA
# Settings: affinity for the human D3 receptor; [3H]spiperone 0.5-2 nM, CHO-hD3 membranes, 60 minutes at room temperature
# Protocol: Affinity of compounds for the human D3 receptor can be determined by [^3H] spiperone binding CHO cells have been transfected by the cDNA coding for the human D3 receptor (hD3). [^3H]Spiperone (0.5 à 2 nM) binding is performed in the presence of 2.5 to 5 μg of membrane proteins in a medium containing 120 mM NaCl, 5 mM KCl, and 50 mM Tris HCl pH 7.4; incubation for 60 minutes at room temperature is performed. Non specific binding is estimated in the presence of 10 μM haloperidol. Non transfected cells are devoid of any specific binding.
# Sequence of human D3 receptor (P35462 whole entry): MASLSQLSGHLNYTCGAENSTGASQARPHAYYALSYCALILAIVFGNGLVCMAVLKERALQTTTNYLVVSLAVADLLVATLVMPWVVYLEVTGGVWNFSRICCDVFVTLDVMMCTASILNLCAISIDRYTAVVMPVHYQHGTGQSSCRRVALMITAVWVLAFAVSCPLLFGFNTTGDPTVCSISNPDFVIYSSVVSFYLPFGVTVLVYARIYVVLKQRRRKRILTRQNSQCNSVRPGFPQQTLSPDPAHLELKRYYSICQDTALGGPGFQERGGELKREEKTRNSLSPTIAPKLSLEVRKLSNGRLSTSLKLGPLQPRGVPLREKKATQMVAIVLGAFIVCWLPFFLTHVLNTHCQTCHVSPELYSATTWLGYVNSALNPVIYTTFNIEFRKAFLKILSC
row,SMILES,Ki [nM]
1,"O=C(N[C@H]1CC[C@H](CCN2CCN(c3ccccn3)CC2)CC1)C1CC=CC1 [Example 65, Cyclopent-3-enecarboxylic acid {4-[2-(4-pyridin-2-ylpiperazin-1-yl)ethyl]cyclohexyl}amide]",31.6
2,"O=C(C=C1CCC(CCN2CCN(c3cccc(C(F)(F)F)c3)CC2)CC1)N1CCCC1 (stereo not drawn) [Example 291, 1-Pyrrolidin-1-yl-2-(4-{2-[4-(3-trifluoromethylphenyl)piperazin-1-yl]ethyl}cyclohexylidene) ethanone]",4.4
3,"CC(=O)NCC(=O)N1CCC(CCN2CCN(c3cccc(C(F)(F)F)c3)CC2)CC1 [Example 14, N-[2-Oxo-2-(4-{2-[4-(3-trifluoromethylphenyl)piperazin-1-yl]ethyl}piperidin-1-yl)ethyl]acetamide]",15.1
4,"O=C(CO)N[C@H]1CC[C@H](CCN2CCN(c3cccc(C(F)(F)F)c3)CC2)CC1 [Example 46, 2-Hydroxy-N-(4-{2-[4-(3-trifluoromethylphenyl)piperazin-1-yl]ethyl}cyclohexyl)acetamide, hydrochloride]",12
5,"COc1ccccc1N1CCN(CCC2CCN(CC(C)=O)CC2)CC1.Cl.Cl [Example 20, 1-(4-{2-[4-(2-Methoxy-phenyl)piperazin-1-yl]ethyl}piperidin-1-yl)propan-2-one, dihydrochloride]",9.5
6,"Cl.N#CCC(=O)N1CCC(CCN2CCN(c3cccc(C(F)(F)F)c3)CC2)CC1 [Example 15, 3-Oxo-3-(4-{2-[4-(3-trifluoromethylphenyl)piperazin-1-yl]ethyl}piperidin-1-yl)propanenitrile, hydrochloride]",15.1
7,"CC(=O)CN1CCC(CCN2CCN(c3cccc4ccccc34)CC2)CC1.Cl.Cl [Example 36, 1-{4-[2-(4-Naphthalen-1-ylpiperazin-1-yl)ethyl]piperidin-1-yl}propan-2-one]",1.32
8,"N#Cc1ccc2c(c1)CCN(CC[C@H]1CC[C@H](NC(=O)CC(F)(F)F)CC1)C2 [Example 110, N-{4-[2-(6-Cyano-3,4-dihydro-1H-isoquinolin-2-yl)ethyl]cyclohexyl}-3,3,3-trifluoropropanamide]",10.6
9,"CC(=O)C(=O)N1CCC(CCN2CCN(c3cccc(C(F)(F)F)c3)CC2)CC1 [Example 2, 1-(4-{2-[4-(3-trifluoromethylphenyl)piperazin-1-yl]ethyl}-piperidin-1-yl)propane-1,2-dione, hydrochloride]",6.6

# Test system: not given
# Experiment: not given
# Settings: not given
row,SMILES,melting point [°C]
1,"O=C(N[C@H]1CC[C@H](CCN2CCN(c3ccccn3)CC2)CC1)C1CC=CC1 [Example 65, Cyclopent-3-enecarboxylic acid {4-[2-(4-pyridin-2-ylpiperazin-1-yl)ethyl]cyclohexyl}amide]",208
2,"O=C(C=C1CCC(CCN2CCN(c3cccc(C(F)(F)F)c3)CC2)CC1)N1CCCC1 (stereo not drawn) [Example 291, 1-Pyrrolidin-1-yl-2-(4-{2-[4-(3-trifluoromethylphenyl)piperazin-1-yl]ethyl}cyclohexylidene) ethanone]",87
3,"CC(=O)NCC(=O)N1CCC(CCN2CCN(c3cccc(C(F)(F)F)c3)CC2)CC1 [Example 14, N-[2-Oxo-2-(4-{2-[4-(3-trifluoromethylphenyl)piperazin-1-yl]ethyl}piperidin-1-yl)ethyl]acetamide]",133
4,"COc1ccccc1N1CCN(CCC2CCN(CC(C)=O)CC2)CC1.Cl.Cl [Example 20, 1-(4-{2-[4-(2-Methoxy-phenyl)piperazin-1-yl]ethyl}piperidin-1-yl)propan-2-one, dihydrochloride]",260
5,"Cl.N#CCC(=O)N1CCC(CCN2CCN(c3cccc(C(F)(F)F)c3)CC2)CC1 [Example 15, 3-Oxo-3-(4-{2-[4-(3-trifluoromethylphenyl)piperazin-1-yl]ethyl}piperidin-1-yl)propanenitrile, hydrochloride]",184
6,"CC(=O)CN1CCC(CCN2CCN(c3cccc4ccccc34)CC2)CC1.Cl.Cl [Example 36, 1-{4-[2-(4-Naphthalen-1-ylpiperazin-1-yl)ethyl]piperidin-1-yl}propan-2-one]",338
7,"N#Cc1ccc2c(c1)CCN(CC[C@H]1CC[C@H](NC(=O)CC(F)(F)F)CC1)C2 [Example 110, N-{4-[2-(6-Cyano-3,4-dihydro-1H-isoquinolin-2-yl)ethyl]cyclohexyl}-3,3,3-trifluoropropanamide]",215
8,"CS(=O)(=O)c1cccc(N2CCN(CC[C@H]3CC[C@H](NC(=O)C(F)(F)F)CC3)CC2)c1 [Example 461, 2,2,2-Trifluoro-N-(4-{2-[4-(3-methanesulfonylphenyl)piperazin-1-yl]ethyl}cyclohexyl)acetamide]",132
9,"CCOCC(=O)N[C@H]1CC[C@H](CCN2CCN(c3ccc(C)c(C)c3)CC2)CC1 [Example 508, N-(4-{2-[4-(3,4-Dimethylphenyl)piperazin-1-yl]ethyl}cyclohexyl)-2-ethoxyacetamide]",122
10,CC(=O)CN1CCC(CCN2CCN(c3cc(C)c(F)cc3Cl)CC2)CC1.Cl.Cl,344
11,"CC(C)(C#N)C(=O)N[C@H]1CC[C@H](CCN2CCN(c3cccc(C(F)(F)F)c3)CC2)CC1 [Example 282, 2-Cyano-2,2-dimethyl-N-(4-{2-[4-(3-trifluoromethylphenyl)-piperazin-1-yl]ethyl}cyclohexyl)-acetamide]",150
12,N#CCC(=O)N[C@H]1CC[C@H](CCN2CC=C(c3cccc(C(F)(F)F)c3F)CC2)CC1,171
13,"CC(=O)CN1CCC(CCN2CCN(c3ccc(F)c(C#N)c3F)CC2)CC1 [Example 690, 2,6-Difluoro-3-(4-{2-[1-(2-oxo-propyl)piperidin-4-yl]ethyl}piperazin-1-yl)benzonitrile]",108
14,"CC(=O)CCC(=O)N[C@H]1CC[C@H](CCN2CCN(c3cccc(C(F)(F)F)c3F)CC2)CC1 [Example 231, 4-Oxopentanoic acid (4-{2-[4-(2-fluoro-3-trifluoromethyl-phenyl)piperazin-1-yl]ethyl}cyclohexyl)amide]",178
15,"N#CCC(=O)N[C@H]1CC[C@H](CCN2CCN(c3ccc(F)cc3)CC2)CC1 [Example 241, 2-Cyano-N-(4-{2-[4-(4-fluoro-phenyl)piperazin-1-yl]ethyl}cyclohexyl)acetamide]",209
16,CC(C)(C)OC(=O)N1CCC(CCN2CCN(c3cccc(C(F)(F)F)c3)CC2)CC1.Cl,188
17,"CCc1ccc(F)c(N2CCN(CC[C@H]3CC[C@H](NC(=O)CCCC#N)CC3)CC2)c1 [Example 674, 4-Cyano-N-(4-{2-[4-(5-ethyl-2-fluorophenyl)piperazin-1-yl]ethyl}cyclohexyl)butanamide]",153
18,"CCC(=O)c1cccc(N2CCN(CCC3CCN(CC(C)=O)CC3)CC2)c1 [Example 604, 1-[3-(4-{2-[1-(2-Oxopropyl)piperidin-4-yl]ethyl}piperazin-1-yl)phenyl]propan-1-one]",68

row,SMILES,melting point [°C]
1,"O=C(N[C@H]1CC[C@H](CCN2CCN(c3ccc(F)cc3F)CC2)CC1)C1=CCCC1 [Example 384, Cyclopent-1-enecarboxylic acid (4-{2-[4-(2,4-difluorphenyl)-piperazin-1-yl]ethyl}cyclohexyl) amide]",205
2,"N#CCCCC(=O)N[C@H]1CC[C@H](CCN2CCN(c3cccc(C(F)(F)F)c3)CC2)CC1 [Example 161, 4-Cyano-N-(4-{2-[4-(3-trifluoromethylphenyl)piperazin-1-yl]ethyl}cyclohexyl)butanamide]",149
3,"O=C(N[C@H]1CC[C@H](CCN2CCN(c3ccc(F)cc3F)CC2)CC1)C1=CCCCC1 [Example 71, Cyclohex-1-enecarboxylic acid (4-{2-[4-(2,4-difluorophenyl)-piperazin-1-yl]ethyl}-cyclohexyl)amide]",203
4,CC(C)OCC(=O)N[C@H]1CC[C@H](CCN2CCN(c3cccc(F)c3F)CC2)CC1.Cl,215
5,CC(=O)CN1CCC(CCN2CCN(c3ccc(F)c(C(F)(F)F)c3)CC2)CC1.Cl.Cl,266
6,"Cc1ccc(F)c(N2CCN(CC[C@H]3CC[C@H](NC(=O)C4=CCCC4)CC3)CC2)c1 [Example 534, Cyclopent-1-enecarboxylic acid (4-{2-[4-(2-fluoro-5-methylphenyl)piperazin-1-yl]ethyl}cyclohexyl) amide]",174
7,CC(=O)CN1CCC(CCN2CCN(c3ccccc3C(C)C)CC2)CC1.Cl.Cl,260
8,"CCOCC(=O)N[C@H]1CC[C@H](CCN2CCN(c3cc(F)c(F)c(F)c3)CC2)CC1 [Example 465, 2-Ethoxy-N-(4-{2-[4-(3,4,5-trifluorophenyl)piperazin-1-yl]ethyl}cyclohexyl)acetamide]",133
9,"COCC(=O)N[C@H]1CC[C@H](CCN2CCN(c3cccc(C(F)(F)F)c3C)CC2)CC1 [Example 734, 2-Methoxy-N-(4-{2-[4-(2-methyl-3-trifluoromethylphenyl)piperazin-1-yl]ethyl}cyclohexyl)acetamide]",159
10,"O=C(CC1C=CCC1)N[C@H]1CC[C@H](CCN2CCN(c3cccc(F)c3)CC2)CC1 (stereo partly drawn) [Example 420, 2-Cyclopent-2-enyl-N-(4-{2-[4-(3-fluorophenyl)piperazin-1-yl]ethyl}cyclohexyl)acetamide]",188
11,"Cc1c(F)cccc1N1CCN(CC[C@H]2CC[C@H](NC(=O)CCCC#N)CC2)CC1 [Example 356, 4-Cyano-N-(4-{2-[4-(3-fluoro-2-methylphenyl)piperazin-1-yl]ethyl}cyclohexyl)butanamide]",159
12,"N#CCCCC(=O)N[C@H]1CC[C@H](CCN2CCN(c3ccc(Cl)c(Cl)c3)CC2)CC1 [Example 368, 4-Cyano-N-(4-{2-[4-(3,4-dichlorophenyl)piperazin-1-yl]ethyl}cyclohexyl)butanamide]",151
13,"N#CCC(=O)N[C@H]1CC[C@H](CCN2CCN(c3cccc(Cl)c3)CC2)CC1 [Example 156, N-(4-{2-[4-(3-Chlorophenyl)-piperazin-1-yl]ethyl}cyclohexyl)-2-cyanoacetamide]",186 to 187
14,"COc1c(Cl)cccc1N1CCN(CC[C@H]2CC[C@H](NC(=O)CCCC#N)CC2)CC1 [Example 449, N-(4-{2-[4-(3-Chloro-2-methoxyphenyl)piperazin-1-yl]ethyl}cyclohexyl)-4-cyanobutanamide]",118
15,N#CCC(=O)N[C@H]1CC[C@H](CCN2CC=C(c3ccc(Cl)cc3)CC2)CC1,220
16,"CC(C)c1cccc(N2CCN(CC[C@H]3CC[C@H](NC(=O)CC#N)CC3)CC2)c1 [Example 335, 2-Cyano-N-(4-{2-[4-(3-isopropylphenyl)piperazin-1-yl]ethyl}cyclohexyl)acetamide]",153
17,"CCOCC(=O)N[C@H]1CC[C@H](CCN2CCN(c3ccc(Cl)cc3)CC2)CC1 [Example 515, N-(4-{2-[4-(4-Chloro-phenyl)piperazin-1-yl]ethyl}-cyclohexyl)-2-ethoxyacetamide]",154
18,"Cc1ccc(Cl)cc1N1CCN(CC[C@H]2CC[C@H](NC(=O)CCCC#N)CC2)CC1 [Example 248, N-(4-{2-[4-(5-Chloro-2-methylphenyl)piperazin-1-yl]ethyl}cyclohexyl)-4-cyanobutanamide]",152 to 153
